Experimental data as given in BindingDB's records for doi:10.1021/acs.jmedchem.6b00541 (Vertex Pharmaceuticals, 2016).

Experiments:
[1] = Allosteric inhibition of HCV genotype 1b NS5A infected in human l389lucubi- neo/NS3-375.1-containing Huh7ET cells assessed as RNA replication/translation after 4 days by luciferase reporter gene assay
[2] = Allosteric inhibition of HCV genotype 1a NS5A infected in human W11.8 cells assessed as reduction in viral RNA replication after 4 days by ELISA
[3] = Allosteric inhibition of HCV genotype 1b NS5A infected in human l389lucubi- neo/NS3-375.1-containing Huh7ET cells assessed as RNA replication/translation after 4 days in presence of 40% human serum by luciferase reporter gene assay
[4] = target: T1, Nonstructural protein 5A (UniProt Q5L478); experiment: Allosteric inhibition of HCV genotype 1b NS5A infected in human l389lucubi- neo/NS3-375.1-containing Huh7ET cells assessed as RNA replication/translation after 4 days by luciferase reporter gene assay
T1 sequence (Q5L478 whole entry): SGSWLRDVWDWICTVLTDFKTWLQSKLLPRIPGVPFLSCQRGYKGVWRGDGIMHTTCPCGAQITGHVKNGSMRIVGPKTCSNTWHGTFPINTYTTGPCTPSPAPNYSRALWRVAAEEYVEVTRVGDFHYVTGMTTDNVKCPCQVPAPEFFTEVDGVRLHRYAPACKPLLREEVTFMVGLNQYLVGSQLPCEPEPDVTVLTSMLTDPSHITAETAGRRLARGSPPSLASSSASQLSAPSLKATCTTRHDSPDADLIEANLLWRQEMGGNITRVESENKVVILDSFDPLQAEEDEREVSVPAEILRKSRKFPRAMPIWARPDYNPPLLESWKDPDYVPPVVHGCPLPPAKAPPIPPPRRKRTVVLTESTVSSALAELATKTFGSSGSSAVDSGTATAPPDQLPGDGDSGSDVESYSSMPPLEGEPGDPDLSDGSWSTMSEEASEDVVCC

| Compound | EC50 [1] | EC50 [2] | EC50 [3] | EC50 [4] |
| --- | --- | --- | --- | --- |
| CC(C)NC(=O)CN(c1cc(C#CC(C)(C)C)sc1C(=O)O)C(=O)[C@H]1CC[C@H](C)CC1 | 160 nM |  |  |  |
| CN1CCN(C(=O)CN(c2cc(C#CC(C)(C)C)sc2C(=O)O)C(=O)[C@H]2CC[C@H](C)CC2)CC1 | 6 nM |  |  |  |
| CCC[C@@H](C(=O)N(C)C)N(c1cc(C#CC(C)(C)C)sc1C(=O)O)C(=O)[C@H]1CC[C@H](C)CC1 | 14 nM |  |  |  |
| CCN(CC)C(=O)CN(c1cc(C#CC(C)(C)C)sc1C(=O)O)C(=O)[C@H]1CC[C@H](C)CC1 | 23 nM | 51 nM |  |  |
| CC(C)(C)C#Cc1cc(N(CC(=O)N2CCC(O)CC2)C(=O)[C@H]2CC[C@H](C)CC2)c(C(=O)O)s1 | 64 nM |  |  |  |
| CNC(=O)CN(c1cc(C#CC(C)(C)C)sc1C(=O)O)C(=O)[C@H]1CC[C@H](C)CC1 | 190 nM |  |  |  |
| CC(C)(C)C#Cc1cc(N(C(=O)[C@H]2CC[C@H](C)CC2)[C@H]2CC[C@H](O)CC2)c(C(=O)O)s1 [Lomibuvir] | 7 nM | 53 nM |  |  |
| CC(C)(C)C#Cc1cc(N(CC(=O)N2CCOCC2)C(=O)[C@H]2CC[C@H](C)CC2)c(C(=O)O)s1 |  | 37 nM | 340 nM | 23 nM |
| CC(C)(C)C#Cc1cc(N(CC(=O)N2CC(O)C2)C(=O)[C@H]2CC[C@H](C)CC2)c(C(=O)O)s1 | 66 nM |  |  |  |
| CN(C)CCN(C)C(=O)CN(c1cc(C#CC(C)(C)C)sc1C(=O)O)C(=O)[C@H]1CC[C@H](C)CC1 | 9 nM |  |  |  |
| CC(C)(C)C#Cc1cc(N(CC(=O)N2CCCCC2)C(=O)[C@H]2CC[C@H](C)CC2)c(C(=O)O)s1 | 67 nM |  |  |  |
| CC(C)(C)C#Cc1cc(N(CC(=O)N2CCCC2)C(=O)[C@H]2CC[C@H](C)CC2)c(C(=O)O)s1 | 21 nM | 32 nM |  |  |
| C[C@H](C(=O)N(C)C)N(c1cc(C#CC(C)(C)C)sc1C(=O)O)C(=O)[C@H]1CC[C@H](C)CC1 | 109 nM |  |  |  |
| COC1CCN(C(=O)CN(c2cc(C#CC(C)(C)C)sc2C(=O)O)C(=O)[C@H]2CC[C@H](C)CC2)CC1 | 17 nM |  |  |  |
| CC(C)[C@@H](C(=O)N(C)C)N(c1cc(C#CC(C)(C)C)sc1C(=O)O)C(=O)[C@H]1CC[C@H](C)CC1 | 51 nM |  |  |  |
| COC[C@@H](C(=O)N(C)C)N(c1cc(C#CC(C)(C)C)sc1C(=O)O)C(=O)[C@H]1CC[C@H](C)CC1 | 7 nM | 11 nM |  |  |
| CN(C)C(=O)CN(c1cc(C#CC(C)(C)C)sc1C(=O)O)C(=O)[C@H]1CC[C@H](C)CC1 | 12 nM | 35 nM |  |  |
| C[C@@H](C(=O)N(C)C)N(c1cc(C#CC(C)(C)C)sc1C(=O)O)C(=O)[C@H]1CC[C@H](C)CC1 | 5 nM | 7 nM |  |  |
| CC[C@@H](C(=O)N(C)C)N(c1cc(C#CC(C)(C)C)sc1C(=O)O)C(=O)[C@H]1CC[C@H](C)CC1 | 16 nM | 24 nM |  |  |
| CN(C)C(=O)[C@H](CO)N(c1cc(C#CC(C)(C)C)sc1C(=O)O)C(=O)[C@H]1CC[C@H](C)CC1 | 60 nM |  |  |  |
